{"source": "patent US20210145802A1", "about": "“THERAPY FOR OPHTHALMOLOGICAL CONDITIONS” (WREN THERAPEUTICS LIMITED, priority 2018, published 2021)", "key": {"Aβ42 fibrils": {"target": "T1, Aβ42 fibrils (Homo sapiens, UniProt P05067)", "T1 construct": "[…]; made in house; host or cells: E. coli BL21 Gold (DE3)", "T1 sequence (P05067 671-713)": "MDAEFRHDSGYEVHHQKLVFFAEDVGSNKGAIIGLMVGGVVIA", "assay": "Dot-blot assay with fibril-specific OC antibody", "type": "biochemical", "conditions": "2 μM Aβ42; 5-fold excess of compound; eight time points", "experimental": "Blotting was performed using Aβ42 fibril-specific antibody (OC, Millipore). During the time course of the aggregation of a 2 μM Aβ42 in the absence and in the presence of 5-fold excess of Netoglitazone, 4 μL Aβ42 aliquots were removed from the mixture at different time points for blotting with OC. Aβ42 aliquots were spotted onto a nitrocellulose membrane (0.2 μm, Whatman) and then the membranes were dried and then blocked with Blocking One (Nacalai tesque) before immuno-detection. OC was used according to the manufacturer's instructions. Alexa Fluor® 488-conjugated secondary antibodies (Life technologies) were subsequently added and fluorescence detection was performed using Typhoon Trio Imager (GE Healthcare)."}, "control worms": {"tested_on": "control worms", "conditions": "C. elegans, in vivo", "experimental": "(§1) Briefly, Netoglitazone stocks (5 mM in 100% DMSO) were used at an appropriate concentration to seed 9-cm NGM plates. Plates were then placed in a laminar flow hood at room temperature (22° C.) for up to 4 hours to dry. C. elegans cultures were then transferred onto media seeded with compound as L4 stage or Day 3 for late treatments and incubated at 24° for the whole experiment. Experiments were carried out at different Netoglitazone concentrations ranging from 0.05 to 500 μM in 1% DMSO. As controls, plates seeded only with 1% DMSO were used."}, "GMC101 (Aβ worms)": {"tested_on": "GMC101 (Aβ worms)", "conditions": "GMC101, C. elegans, in vivo", "experimental": "as §1"}, "Aβ42 oligomers [1]": {"target": "T2, Aβ42 oligomers (Homo sapiens, UniProt P05067)", "T2 construct": "[…]; made in house; host or cells: E. coli BL21 Gold (DE3)", "T2 sequence (P05067 671-713)": "as above", "assay": "ELISA with oligomer-specific antibody", "type": "biochemical", "conditions": "5 μM Aβ42; 5-fold excess; at half-time of aggregation of Aβ42 alone", "experimental": "20 μl Aliquots were taken at the t50 (i.e. half-time) from aggregation reactions of 5 μM Aβ42 in the absence and in the presence of 5-fold excess of Netoglitazone. Samples were then immobilised on a 96-well Maxisorp ELISA plate (Nunc, Roskilde, Denmark) with no shaking for 1 h at room temperature. The plate was then washed three times with 20 mM Tris pH 7.4, 100 mM NaCl and incubated in 20 mM Tris pH 7.4, 100 mM NaCl, 5% BSA under constant shaking overnight at 4° C. The day after the plate was washed six times with 20 mM Tris pH 7.4, 100 mM NaCl and then incubated with 30 μl solutions of 5 μM oligomer-specific antibody under constant shaking either for 1 hour or overnight at room temperature. At the end of this incubation, the plate was washed six times with 20 mM Tris pH 7.4, 100 mM NaCl and incubated with 30 μl solutions of Rabbit polyclonal to 6× His Tag® HRP conjugated (Abcam, Cambridge, UK) at a dilution of 1:4000 in 20 mM Tris pH 7.4, 100 mM NaCl, 5% BSA under shaking for 1 hour at room temperature. […] Finally, the amount of bound oligomer-specific antibody was quantified by using 1-Step™ Ultra TMB-ELISA Substrate Solution (ThermoFisher Scientific, Waltham, Mass., United States), according to manufacturer instructions, and measuring the absorbance at 450 nm by means of a CLARIOstar plate reader (BMG Labtech, Aylesbury, UK)."}, "Aβ42 oligomers [2]": {"target": "T2, Aβ42 oligomers", "assay": "Ca2+ influx assay (lipid vesicle disruption by aggregates)", "type": "biochemical", "conditions": "2 μM Aβ42; 5-fold excess added at 0 h; measured at 2 h", "experimental": "Single vesicles tethered to PLL-PEG coated borosilicate glass coverslides (VWR International, 22×22 mm, product number 63 1-0122) were placed on an oil immersion objective mounted on an inverted Olympus IX-71 microscope. Each coverslide was affixed at Frame-Seal incubation chambers and was incubated with 50 μL of HEPES buffer of pH 6.5. Just before the imaging, the HEPES buffer was replaced with 50 μL Ca^2+ containing buffer solution L-15. 16 (4×4) images of the coverslide were recorded under three different conditions (background, in the presence of Aβ42 and after addition of ionomycin (Cambridge Bioscience Ltd, Cambridge, UK), respectively). The distance between each field of view was set to 100 μm, and was automated (bean-shell script, Micromanager) to avoid any user bias. After each measurement the script allowed the stage (Prior H117, Rockland, Mass., USA) to move the field of view back to the start position such that identical fields of view could be acquired for the three different conditions. Images of the background were acquired in the presence of L15 buffer. For each field of view 50 images were taken with an exposure time of 50 ms. […] The recorded images were analysed using ImageJ to determine the fluorescence intensity of each spot under the three different conditions in the presence of an aggregation mixture incubated with and without Netoglitazone."}, "Aβ42": {"target": "T3, Aβ42 (Homo sapiens, UniProt P05067)", "T3 construct": "[…]; made in house; host or cells: E. coli BL21 Gold (DE3)", "T3 sequence (P05067 671-713)": "as above", "assay": "Aβ42 aggregation kinetics in human CSF", "type": "biochemical", "conditions": "66% CSF; 1.25 and 5-fold excess", "experimental": "For the experiments of Aβ42 aggregation kinetics in human CSF, monomeric solutions of 3 μM Aβ42 were prepared similar to above with the only exception that the buffer was 20 mM Hepes, pH 8 supplemented with 1 mM CaCl2 at 150 mM NaCl. The obtained monomer was diluted with the […] in order to reach 66% final concentration of CSF, in which the effect of CSF is close to maximum. Aβ42 aggregation kinetics were performed in the absence and the presence of 1.25 and 5-fold excess of Netoglitazone."}, "[3]": {"target": "A1340 (40-residue isoform of Aβ) (Homo sapiens, UniProt P05067)", "sequence (P05067 672-711 limits assumed)": "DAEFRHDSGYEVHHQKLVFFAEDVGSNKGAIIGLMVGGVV", "assay": "A1340 aggregation kinetics", "conditions": "10 μM A1340; 1.25-fold excess"}}}
{"smiles": "O=C1NC(=O)C(Cc2ccc3cc(OCc4ccccc4F)ccc3c2)S1", "note": "(stereo not shown) [Netoglitazone]", "values": [{"measurement": "delay of Aβ42 fibril formation in dot blot assay compared with ThT-based assay", "setting": "Aβ42 fibrils", "value": "identical within experimental error"}, {"measurement": "maximum tolerable dose", "setting": "control worms", "value": "< 500", "unit": "µM"}, {"measurement": "maximum tolerable dose", "setting": "GMC101 (Aβ worms)", "value": "less than 50 μM"}, {"measurement": "Aβ42 oligomer concentration (ELISA)", "setting": "Aβ42 oligomers [1]", "value": "significant reduction"}, {"measurement": "protection against vesicle disruption (Ca2+ influx) by Aβ42 species", "setting": "Aβ42 oligomers [2]", "value": "protected against the neurotoxic species-induced vesicle disruption"}, {"measurement": "delay of Aβ42 aggregation kinetics in 66% human CSF", "setting": "Aβ42", "value": "significantly delayed the aggregation kinetics"}, {"measurement": "inhibition of A1340 aggregation", "setting": "[3]", "value": "able to inhibit A1340 aggregation"}]}
